In BindingDB's records for doi:10.1007/bf00506193 (1984):

Target: T1, Alpha-1A adrenergic receptor (Rattus norvegicus, UniProt P43140)
T1 sequence (P43140 whole entry): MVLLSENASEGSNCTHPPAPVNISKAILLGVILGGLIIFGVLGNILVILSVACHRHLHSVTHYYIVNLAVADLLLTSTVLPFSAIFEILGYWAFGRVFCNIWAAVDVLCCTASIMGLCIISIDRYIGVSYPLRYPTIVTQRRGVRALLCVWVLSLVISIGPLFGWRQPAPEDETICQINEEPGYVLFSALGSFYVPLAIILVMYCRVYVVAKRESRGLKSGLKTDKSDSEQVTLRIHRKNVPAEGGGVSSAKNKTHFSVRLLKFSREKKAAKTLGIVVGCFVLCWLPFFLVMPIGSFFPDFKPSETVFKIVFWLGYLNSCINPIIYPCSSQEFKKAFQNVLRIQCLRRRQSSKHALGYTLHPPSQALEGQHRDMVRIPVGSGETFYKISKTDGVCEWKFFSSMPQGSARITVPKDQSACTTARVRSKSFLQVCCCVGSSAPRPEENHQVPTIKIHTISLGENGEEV

c1ccc2c(c1)OCC(C1=NCCN1)O2 (stereo unspecified)
Ki: 0.091 µM
